Assay: Mice serum protein binding assay (equilibrium dialysis, RED Device)
Format: in vitro ADME
Conditions: CD-1 (ICR), mouse, pH 7.4, murine serum, 37° C., 5 to 6 hours, read-out: Protein binding rate (converted)
Experimental: The protein binding rate was determined by equilibrium dialysis method using the RED Device (8K MWCO, Rapid Equilibrium Dialysis Device, Thermo Scientific). The test substances that had been dissolved in DMSO were added to the serum that was collected from Cr1: CD-1 (ICR) mice fasted overnight, so that the final concentration of DMSO became 1% (v/v). The serum to which the test substance had been added was added to the inner side of the dialysis membrane of the RED Device, and PBS (phosphate buffer saline, pH 7.4) containing 0.01% (v/v) Tween 80 was added to the outside in accordance with the method for using the RED Device and incubated at 37° C. for 5 to 6 hours with ellipsoidal shaking at 100 rpm so that the concentration of the unbound test substance in the serum and the concentration of the test substance in the PBS reached equilibrium. […] The proteins were removed from the measurement sample by adding acetonitrile in an amount of 5-fold or more of the amount of the internal standard substance and the serum sample, and the supernatants were measured by LC/MS/MS (liquid chromatograph-triple quadrupole mass spectrometer). The serum samples were measured after suitably diluting with distilled water as necessary. […]
However, in the case when the concentration in the sample was calculated by using a calibration curve, A and B were as follows.

fraction unbound: 0.068
Compound: CC[C@]1(c2cccc(NS(C)(=O)=O)c2)[C@@H]2CN(CC3(O)Cc4ccccc4C3)C[C@@H]21 [Comparative Compound 1, N-(3-{(1R,5S,6r)-6-ethyl-3-[(2-hydroxy-2,3-dihydro-1H-inden-2-yl)methyl]-3-azabicyclo[3.1.0]hexan-6-yl}phenyl)methanesulfonamide methanesulfonate]
